Measured values published in patent US4348264A, “Photocatalyzed process for producing carbapenams and carbapen-2-ems” (Pfizer Inc., priority 1981, dated 1982).
In brackets after ≈: the same amount, converted by molar mass. Like-named read-outs stand apart in the source and are kept apart here.

Tests used:
Format in all cases: cell-based
Serratia marcescens = test: Serial dilution-tube method, MIC; conditions: Serratia marcescens; brain heart infusion broth; read-out: Minimum Inhibitory Concentration
Staphylococcus aureus [1] = test: Serial dilution-tube method, MIC; conditions: Staphylococcus aureus
Pseudomonas aeruginosa = test: Serial dilution-tube method, MIC; conditions: Pseudomonas aeruginosa; brain heart infusion broth; read-out: Minimum Inhibitory Concentration
Vibrio percolans = test: Standard disc-plate method, zone of inhibition; conditions: Comamonas terrigena, 25 microgram discs
Text: (§1) The utility of the various compounds as intermediates to other compounds of the present invention will be evident from the preceding discussion. The antibacterial activity of these compounds, reflecting their utility in the control of susceptible bacterial infections in man and animals, as animal feed additives for promotion of growth, or as preservatives of materials biodegraded by susceptible microorganisms, is best measured by the standard disc-plate method routinely employed in clinical laboratories for determining the sensitivity of microorganisms to antimicrobial substances. Sensitivity discs are prepared by dipping a standard 6.25 mm. paper disc into a solution of the compound to be tested (conc. 1 mg./ml.) in a volatile solvent (e.g. methylene chloride) and the disc dried, producing discs containing approximately 25 microg. of the compound. The discs are placed on the surface of agar growth media seeded with the test microorganism, previously plated into Petri dishes. The plates are incubated overnight at 35°-37° C. Activity of the test compound is reflected by a zone of inhibition of bacterial growth around the test disc. The diameter of this zone provides a quantitative measure of the activity of the antibacterial substance. The activity of various compounds of the present invention is summarized in Table I. For comparison, results obtained with 10 microg. discs of ampicillin and penicillin G are included as positive controls.

[2] = test system: Staphylococcus aureus (Antibiotic Resistant); test: Standard disc-plate method, zone of inhibition; conditions: Staphylococcus aureus; 25 microgram discs; antibiotic resistant
Text: as §1

Bacillus subtilis = test: Standard disc-plate method, zone of inhibition; conditions: Bacillus subtilis; 25 microgram discs
Text: as §1

Staphylococcus aureus [3] = test: Standard disc-plate method, zone of inhibition; conditions: Staphylococcus aureus; 25 microgram discs
Text: as §1

Escherichia coli [4] = test: Standard disc-plate method, zone of inhibition; conditions: Escherichia coli, 25 microgram discs
Text: as §1

[5] = test system: Escherichia coli (Antibiotic Resistant); test: Serial dilution-tube method, MIC; design: key to synergistic effect with cefazolin: b: Shows a synergistic effect when tested 1:1 with cefazolin; conditions: for MIC: Escherichia coli, brain heart infusion broth, read-out: Minimum Inhibitory Concentration
[6] = test system: Staphylococcus aureus (Antibiotic Resistant); test: Serial dilution-tube method, MIC; design: key to synergistic effect with ampicillin: Shows a synergistic effect when tested 1:1 with ampicillin; conditions: for MIC: Staphylococcus aureus, brain heart infusion broth, read-out: Minimum Inhibitory Concentration; for synergistic effect with ampicillin: tested 1:1 with ampicillin
Citrobacter diversus = test: Serial dilution-tube method, MIC; conditions: Citrobacter koseri; brain heart infusion broth; read-out: Minimum Inhibitory Concentration
Proteus morgani = test: Serial dilution-tube method, MIC; conditions: brain heart infusion broth; read-out: Minimum Inhibitory Concentration
Escherichia coli [7] = test: Serial dilution-tube method, MIC; design: key to synergistic effect with ampicillin: Shows a synergistic effect when tested 1:1 with ampicillin; conditions: for MIC: Escherichia coli, brain heart infusion broth, read-out: Minimum Inhibitory Concentration
Enterobacter cloacae = test: Serial dilution-tube method, MIC; conditions: Enterobacter cloacae; brain heart infusion broth; read-out: Minimum Inhibitory Concentration
Klebsiella pneumoniae = test: Serial dilution-tube method, MIC; conditions: Klebsiella pneumoniae; brain heart infusion broth; read-out: Minimum Inhibitory Concentration
Micrococcus luteus = test: Standard disc-plate method, zone of inhibition; conditions: Micrococcus luteus; 25 microgram discs
Text: as §1

[8] = brain heart infusion broth, read-out: Minimum Inhibitory Concentration

Structure (SMILES) | MIC (Serratia marcescens) | MIC (Staphylococcus aureus [1]; [8]) | MIC (Pseudomonas aeruginosa) | MIC [5] | MIC [6] | MIC (Citrobacter diversus) | MIC (Proteus morgani) | MIC (Escherichia coli [7]) | MIC (Enterobacter cloacae) | MIC (Klebsiella pneumoniae) | MIC (Staphylococcus aureus [1]; serial dilution tube test, read-out: minimum inhibitory concentration) | zone of inhibition at 25 µg/disc (Vibrio percolans) | zone of inhibition at 25 µg/disc [2] | zone of inhibition at 25 µg/disc (Bacillus subtilis) | zone of inhibition at 25 µg/disc (Staphylococcus aureus [3]) | zone of inhibition at 25 µg/disc (Escherichia coli [4]) | synergistic effect with ampicillin (Escherichia coli [7]; tested 1:1 with ampicillin) | synergistic effect with cefazolin ([5]; tested 1:1 with cefazolin) | synergistic effect with ampicillin [6] | zone of inhibition at 25 µg/disc (Micrococcus luteus)
CCN1CCN(C(=O)N[C@@H](C(=O)NC2C(=O)N3C(C(=O)O)C(C)C(O)C23)c2ccccc2)C(=O)C1=O (stereo partly drawn) [EPA H H CH3 H OH I, Sodium 1-Hydroxy-2-methyl-6-[2-phenyl-2-(4-ethyl-2,3-dioxopiperazine-1-carboxamido)acetamido]carbapenam-3-carboxylate] | > 200 µg/mL | 50 µg/mL | > 200 µg/mL | > 200 µg/mL | 200 µg/mL | > 200 µg/mL | 50 µg/mL | 100 µg/mL | 50 µg/mL | > 200 µg/mL | – | 25 mm | 9 mm | 16 mm | 15 mm | 16 mm | – | – | – | –
CCN1CCN(C(=O)N[C@@H](C(=O)NC2C(=O)N3C(C(=O)OCOC(=O)C(C)(C)C)C(C)C(=O)C23)c2ccccc2)C(=O)C1=O (stereo partly drawn) [EPA H POM CH3 O I, Pivaloyloxymethyl 2-Methyl-1-oxo-6-[2-phenyl-2-(4-ethyl-2,3-dioxopiperazine-1-carboxamido)acetamido]carbapenam-3-carboxylate] | 100 µg/mL (≈ 163 µM) | 100 µg/mL (≈ 163 µM) | > 200 µg/mL | > 200 µg/mL | > 200 µg/mL | 100 µg/mL (≈ 163 µM) | 25 µg/mL (≈ 40.7 µM) | 100 µg/mL | 200 µg/mL (≈ 326 µM) | 100 µg/mL (≈ 163 µM) | – | 21 mm | 12 mm | 21 mm | 12 mm | 12 mm | a | – | – | –
CC(=O)OC1C(C)C(C(=O)O)N2C(=O)CC12 (stereo not drawn) [H H H CH3 H OAc I, 1-Acetoxy-2-methylcarbapenam-3-carboxylic Acid] | > 200 µg/mL | > 200 µg/mL | > 200 µg/mL | > 200 µg/mL | > 2000 µg/mL | > 200 µg/mL | > 200 µg/mL | > 200 µg/mL | > 200 µg/mL | > 200 µg/mL | – | – | 0 mm | 12 mm | 0 mm | – | – | – | – | –
CC1C(O)C2CC(=O)N2C1C(=O)OCOC(=O)C(C)(C)C (stereo not drawn) [H H POM CH3 H OH I, Pivaloyloxymethyl 1-Hydroxy-2-methylcarbapenam-3-carboxylate] | > 200 µg/mL | > 200 µg/mL | > 200 µg/mL | > 200 µg/mL | > 200 µg/mL | > 200 µg/mL | > 200 µg/mL | > 200 µg/mL | > 200 µg/mL | > 200 µg/mL | – | – | 0 mm | 0 mm | 0 mm | – | – | – | – | –
CC1C(=O)C2CC(=O)N2C1C(=O)OCOC(=O)C(C)(C)C (stereo not drawn) [H H POM CH3 O I, Pivaloyloxymethyl 2-Methyl-1-oxocarbapenam-3-carboxylate] | > 200 µg/mL | > 200 µg/mL | > 200 µg/mL | > 200 µg/mL | > 200 µg/mL | > 200 µg/mL | > 200 µg/mL | > 200 µg/mL | > 200 µg/mL | > 200 µg/mL | > 200 µg/mL | – | 0 mm | 18 mm | 18 mm | – | – | b | a | –
Cc1onc(-c2ccccc2)c1C(=O)NC1C(=O)N2C(C(=O)OCOC(=O)C(C)(C)C)C(C)C(O)C12 (stereo not drawn) [MPI H POM CH3 H OH I, Pivaloyloxymethyl 1-Hydroxy-2-methyl-6-(5-methyl-3-phenylisoxazole-4-carboxamido)carbapenam-3-carboxylate] | > 200 µg/mL | 100 µg/mL (≈ 200 µM) | > 200 µg/mL | > 200 µg/mL | 100 µg/mL | > 200 µg/mL | > 200 µg/mL | > 200 µg/mL | > 200 µg/mL | > 200 µg/mL | – | 13 mm | 14 mm | 16 mm | 15 mm | 0 mm | – | – | – | –
COC1(NC(=O)COc2ccccc2)C(=O)N2C(C(=O)OCOC(=O)C(C)(C)C)C(C)C(=O)C21 (stereo not drawn) [PMA OMe POM CH3 O I, Pivaloyloxymethyl 6-Methoxy-2-methyl-1-oxo-6-(2-phenoxyacetamido)carbapenam-3-carboxylate] | > 200 µg/mL | > 200 µg/mL | > 200 µg/mL | > 200 µg/mL | > 200 µg/mL | > 200 µg/mL | > 200 µg/mL | > 200 µg/mL | > 200 µg/mL | > 200 µg/mL | – | 0 mm | 0 mm | 11 mm | 0 mm | 0 mm | – | – | a | –

Now from value to compound, other results behind:

MIC (Serratia marcescens) | MIC (Staphylococcus aureus [1]; [8]) | MIC (Pseudomonas aeruginosa) | MIC [5] | MIC [6] | MIC (Citrobacter diversus) | MIC (Proteus morgani) | MIC (Escherichia coli [7]) | MIC (Enterobacter cloacae) | MIC (Klebsiella pneumoniae) | MIC (Staphylococcus aureus [1]; serial dilution tube test, read-out: minimum inhibitory concentration) | Structure (SMILES) | zone of inhibition at 25 µg/disc (Vibrio percolans) | zone of inhibition at 25 µg/disc [2] | zone of inhibition at 25 µg/disc (Bacillus subtilis) | zone of inhibition at 25 µg/disc (Staphylococcus aureus [3]) | zone of inhibition at 25 µg/disc (Escherichia coli [4]) | synergistic effect with ampicillin (Escherichia coli [7]; tested 1:1 with ampicillin) | synergistic effect with cefazolin ([5]; tested 1:1 with cefazolin) | synergistic effect with ampicillin [6] | zone of inhibition at 25 µg/disc (Micrococcus luteus)
25 µg/mL (≈ 40.6 µM) | 25 µg/mL (≈ 40.6 µM) | 200 µg/mL (≈ 325 µM) | > 200 µg/mL | > 200 µg/mL | 12.5 µg/mL (≈ 20.3 µM) | ≤ 0.39 µg/mL | 6.25 µg/mL | 12.5 µg/mL (≈ 20.3 µM) | 12.5 µg/mL (≈ 20.3 µM) | – | CCN1CCN(C(=O)N[C@@H](C(=O)NC2C(=O)N3C(C(=O)OCOC(=O)C(C)(C)C)C(C)C(O)C23)c2ccccc2)C(=O)C1=O (stereo partly drawn) [EPA H POM CH3 H OH I, Pivaloyloxymethyl 1-Hydroxy-2-methyl-6-[2-phenyl-2-(4-ethyl-2,3-dioxopiperazine-1-carboxamido)acetamido]carbapenam-3-carboxylate] | 24 mm | 10 mm | 17 mm | 18 mm | 20 mm | – | – | – | –
> 200 µg/mL | – | > 200 µg/mL | > 200 µg/mL | > 200 µg/mL | > 200 µg/mL | > 200 µg/mL | > 200 µg/mL | > 200 µg/mL | > 200 µg/mL | – | CC1C(=O)C2C(NC(=O)COc3ccccc3)C(=O)N2C1C(=O)OCOC(=O)C(C)(C)C (stereo not drawn) [PMA H POM CH3 O I, Pivaloyloxymethyl 2-Methyl-1-oxo-6-(2-phenoxyacetamido)carbapenam-3-carboxylate] | – | 12 mm | 21 mm | – | 0 mm | – | – | – | 15 mm
> 200 µg/mL | > 200 µg/mL | > 200 µg/mL | > 200 µg/mL | > 200 µg/mL | > 200 µg/mL | > 200 µg/mL | > 200 µg/mL | > 200 µg/mL | > 200 µg/mL | – | COC1(NC(=O)COc2ccccc2)C(=O)N2C(C(=O)OCOC(=O)C(C)(C)C)C(C)C(O)C21 (stereo not drawn) [PMA OMe POM CH3 H OH I, pivaloyloxymethyl 1-hydroxy-6-methoxy-2-methyl-6-(2-phenoxyacetamido)carbapenam-3-carboxylate] | 0 mm | 0 mm | 11 mm | 23 mm | 0 mm | – | – | – | –
